Laboratory results reported in article PMC4850510 (ACS Central Science, 2016).

Legend:
GABA AT = GABA AT (Rattus norvegicus, UniProt P50554); assay: GABA transaminase; format: biochemical
CBS = conditions: read-out: IC50 for CBS; cited from earlier work

Sequence of GABA AT (P50554 28-500): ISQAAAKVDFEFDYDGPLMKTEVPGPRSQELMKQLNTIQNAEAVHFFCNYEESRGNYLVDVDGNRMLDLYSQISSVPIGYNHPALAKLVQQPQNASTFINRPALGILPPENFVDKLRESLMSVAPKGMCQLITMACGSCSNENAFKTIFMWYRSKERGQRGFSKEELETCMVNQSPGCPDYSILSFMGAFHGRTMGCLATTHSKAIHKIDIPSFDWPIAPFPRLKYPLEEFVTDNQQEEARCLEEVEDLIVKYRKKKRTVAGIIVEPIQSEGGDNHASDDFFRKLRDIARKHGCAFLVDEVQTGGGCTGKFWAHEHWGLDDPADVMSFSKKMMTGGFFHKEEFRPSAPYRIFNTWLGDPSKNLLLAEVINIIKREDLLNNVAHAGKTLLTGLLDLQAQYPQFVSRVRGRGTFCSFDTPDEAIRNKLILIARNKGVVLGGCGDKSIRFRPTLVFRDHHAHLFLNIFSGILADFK

NOCC(=O)O [AOAA, aminooxyacetic acid]
fold better inhibitor of GABA AT than of CBS (GABA AT; IC50 GABA AT vs IC50 CBS): 33 fold | IC50 (GABA AT; read-out: IC50 for GABA AT, rat brain homogenate): ~0.36 µM | IC50 (CBS): ~12 µM
